Source: patent US7785639B2, “Composition for treating cancer cells and preparation method for the same” (Kaohsiung Medical University, priority 2005, dated 2010)
In brackets after ≈: the same amount, converted by molar mass.

Legend:
[1] = test system: Hep G2; assay: MTT cytotoxic testing, Hep G2; type: cell-based; settings: average ± standard deviation (n = 2); for IC50 Hep G2: human liver cancer cell line; for IC50: HepG2, human liver cancer cell line
[2] = test system: Hep 3B; assay: MTT cytotoxic testing, Hep 3B; type: cell-based; settings: human liver cancer cell line, average ± standard deviation (n = 2); for IC50: Hep3B
[3] = test system: MCF-7; assay: MTT cytotoxic testing, MCF-7; type: cell-based; settings: average ± standard deviation (n = 2); for IC50 MCF-7: human breast cancer cell line; for IC50: MCF7, human breast cancer cell line
[4] = test system: A549; assay: MTT cytotoxic testing, A549; type: cell-based; settings: average ± standard deviation (n = 2); for IC50 A549: human lung cancer cell line; for IC50: A549, human lung cancer cell line
[5] = test system: MDA-MB-231; assay: MTT cytotoxic testing, MDA-MB-231; type: cell-based; settings: average ± standard deviation (n = 2); for IC50 MDA-MB-231: human breast cancer cell line; for IC50: MDA-MB-231, human breast cancer cell line
[6] = test system: five human cancer cell lines
[7] = test system: MCF-10A
[8] = test system: MCF-10A; assay: cells; settings: Homo sapiens, read-out: IC50 MCF-10A

| Structure (SMILES) | IC50 Hep G2 [1] [µg/mL] | IC50 Hep 3B [2] [µg/mL] | IC50 MCF-7 [3] | IC50 A549 [4] [µg/mL] | IC50 MDA-MB-231 [5] | cytotoxic activities on cancer cells [6] | IC50 [1] [µg/mL] | IC50 [2] [µg/mL] | IC50 [3] [µg/mL] | IC50 [4] [µg/mL] | IC50 [5] [µg/mL] | cytotoxicity to normal human breast epidermal cells [7] | IC50 [8] [µg/mL] |
| --- | --- | --- | --- | --- | --- | --- | --- | --- | --- | --- | --- | --- | --- |
| COC1CC(=O)C=CC1(O)c1cc(=O)c2c(O)cc(O)cc2o1 (stereo not drawn) [Compound B, 5′,6′-Dihydro-6′-methoxy-protoapigenone] | 5.88 ± 0.47 (≈ 18.5 µM) | 1.74 ± 0.08 (≈ 5.47 µM) | 5.92 ± 0.29 µg/mL (≈ 18.6 µM) | 13.30 ± 0.23 (≈ 41.8 µM) | 1.30 ± 0.10 µg/mL (≈ 4.08 µM) | good cytotoxic activities |  |  |  |  |  |  |  |
| O=c1cc(C2(O)C=CC(O)C=C2)oc2cc(O)cc(O)c12 (stereo not drawn) [Compound C, Protoapigenin] | 1.60 ± 0.33 (≈ 5.55 µM) | 20.00 ± 0.58 (≈ 69.4 µM) | — (Without the cytotoxical activity in the concentration of 20 μg/ml) | 18.84 ± 0.60 (≈ 65.4 µM) | — (Without the cytotoxical activity in the concentration of 20 μg/ml) | good cytotoxic activities |  |  |  |  |  |  |  |
| O=C1C=CC(O)(c2cc(=O)c3c(O)cc(O)cc3o2)C=C1 [Compound A, Protoapigenone] |  |  |  |  |  | good cytotoxic activities | 1.6 ± 0.33 (≈ 5.59 µM) | 0.23 ± 0.01 (≈ 0.804 µM) | 0.78 ± 0.02 (≈ 2.72 µM) | 3.88 ± 0.02 (≈ 13.6 µM) | 0.27 ± 0.02 (≈ 0.943 µM) | weak cytotoxicity | 7.9 ± 1.3 (≈ 27.6 µM) |
| COc1cccc2c1C(=O)c1c(O)c3c(c(O)c1C2=O)C[C@@](O)(C(=O)CO)C[C@@H]3O[C@H]1C[C@H](N)[C@H](O)[C@H](C)O1 [Compound E, Doxorubicin, reference compound] |  |  |  |  |  |  | 0.15 (≈ 0.276 µM) | 0.26 ± 0.06 (≈ 0.478 µM) | 0.32 ± 0.08 (≈ 0.589 µM) | 0.36 ± 0.04 (≈ 0.662 µM) | 0.31 ± 0.02 (≈ 0.57 µM) |  |  |
| COC1(OC)CCC(O)(c2cc(=O)c3c(O)cc(O)cc3o2)CC1 [Compound D, 5,7-dihydroxy-2-(1-hydroxy-4,4-dimethoxy-cyclohexyl)-chromen-4-one] |  |  |  |  |  |  | > 20 | > 20 | > 20 | > 20 | > 20 |  |  |
